The source of these data is patent publication US9345742B2, “Aminostatin derivatives for the treatment of arthrosis” (MERCK PATENT GMBH, priority 2011, dated 2016).

Numbered stars: 1 amine (or outer) side, 2 acyl side, 3 side chain; on linkers, the order of the positions; unused ones are H or OH. Square brackets hold non-standard residues; d marks the D form. Peptide text beside a SMILES is read from it. * marks the point of attachment. X1 = N[C@@H](CC(=O)[*:2])[C@H](Cc1ccccc1)N[*:1]; Isovaleryl = CC(C)CC(=O)*

Series [1] in a line: Stability in bovine synovial fluid. It counts as in vitro ADME. The conditions noted are these: 1 μM, 48 h at 37° C. The method, then: In order to check the stability of individual compounds, a pool of four different bovine synovial fluids is mixed. To this end, about 1 ml per SF is used. The mixture is prepared directly in a 5 ml glass vessel. The SFs are mixed thoroughly, but carefully. No air bubbles or foam should form. To this end, a vortex unit is used at the lowest speed. The compounds to be tested are tested in an initial concentration (unless required otherwise) of 1 μM. After addition of the substance, the batch is again mixed thoroughly and carefully. For visual monitoring, all SF batches are photographed, and the pictures are filed in the eLabBio file for the corresponding experiment. […] The batches are incubated in the incubator for 48 h at 37° C. and 7.5% CO2.
The sampling is carried out after the pre-agreed times (unless required otherwise, see below). 200 μl of the SF are removed from the mixture per time and transferred directly into a 0.5 ml “low-binding” Eppendorf vessel. “Low-binding” Eppendorf vessels are used in order to minimise interaction of the substances with the plastic of the vessels. 200 μl of acetonitrile have already been introduced into the Eppendorf vessel, so that a 1+1 mixture of the SF forms thereafter. This simplifies the subsequent analysis, but precipitation of protein may occur immediately after addition of the SF. This should be noted on the protocol. The 0 h sample is taken immediately after addition of the substance. This corresponds to the 100% value in the stability calculation. Ideally, the concentration employed should be retrieved here. The samples can be frozen at −20° C. • 0 h • 6 h • 24 h • 48 h
The negative control used is SF without substance. The positive control used is SF with 1 μM of substance. This corresponds to the 0 h value and thus 100% stability.
The concentrations measured (ng/ml) are plotted against the time in a graph (GraphPad Prism®). The percentage stability of the substance is determined here. The 100% value used is the initial value in the SF at time 0 h. The data are stored in eLabBio under the respective experiment number and reported in the MSR database (as percent stability after the corresponding incubation times).

The next series has as its target recombinant human renin (Homo sapiens (Human), UniProt P00797). Briefly: In-vitro fluorescence assay for identification of renin-inhibitory activity. The format is biochemical. Conditions: recombinant human renin 10 nM, pH 7.2; read-out: Renin selectivity IC50. The method in brief: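 Recombinant human renin (10 nM) pre-incubated 15 min at RT with serially diluted compound in 50 mM Mops pH 7.2, 1.5% DMSO, 0.1% Igepal, 0.5% BSA; Edans/Dabcyl FRET peptide (5 µM final) added, 60 min at 37 °C; cleavage read as fluorescence increase (ex 340/em 495 nm) against no-compound wells.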

In the next series the test system is bovine explants. Briefly: Cartilage explant assay (pH-induced cartilage degradation, GAG liberation). It counts as cell-based. The conditions noted are these: Bos taurus, 72 h, pH 5.5, 3 days. An excerpt:
In order to investigate the effect of potential cathepsin D inhibitors on cartilage degradation, a pH-induced model based on bovine explants is used. The pH of the medium in which the explants are cultivated is matched here to the pathophysiological pH of an arthrotic knee. This pH is pH 5.5. In this ex vivo model, potential cathepsin D inhibitors are subsequently investigated for their action with respect to stopping of the cartilage degradation process. If the cartilage is destroyed, glycosaminoglycans (GAGs) are released into the cell culture supernatant. The amount of GAGs liberated can be determined quantitatively with the aid of DMMB (dimethylmethylene blue hydrochloride). If sulfated GAGs are detected using dimethylmethylene blue hydrochloride, the decrease in the absorption at 633 nm is utilised. […] In order to determine the concentration, a calibration line is also recorded using chondroitin sulfate.
The bovine explants are firstly prepared. The induction of the cartilage degradation is carried out in 96-multiwell plates. One explant is cultivated per well. In each case, 200 μl of DMEM (incubation medium pH 5.5) without FBS+30 μg/ml of ascorbic acid are added. Thus negative control, explants (n=4) are incubated at pH 7.4 (without FBS). This control is not included in the calculation of the data, but instead ensures that the pH change has the desired effect on the liberation of GAG. At this point, the substances to be tested are added. No preincubation of the explants is carried out. The explants are cultivated with the corresponding substances for 3 days in the incubator at 37° C. and 7.5% CO2.
In order to investigate the effect of cathepsin D inhibitors on the liberation of GAG (glycosaminoglycan), the substances are employed in the desired concentration and cultivated for 3 days. The compounds to be tested are tested in a first experiment in a concentration of 1 μM and 1% of DMSO. Substances which have an effect of >50% on the liberation of GAG (this corresponds to <50% of the control in the Assay Explorer) are tested in the next experiment at 100 nM and 1% of DMSO. Substances which have an effect of >50% on the liberation of GAG under these conditions (this corresponds to <50% of the control in the Assay Explorer) are tested in a concentration/effect relationship. The compounds here are investigated in the following concentrations: 30 μM, 10 μM, 3 μM, 1 μM, […], 0.1 μM, 0.03 μM, 0.01 μM.
The positive control used is pepstatin A with a concentration of 0.01 μM. The assay window is defined by the control (pH 5.5), defined as 0% effect, and the control pH 5.5+0.01 μM pepstatin A, defined as 100% effect. After incubation for 3 days, the cell culture supernatants are collected and stored at −20° C. or measured directly. The amount of liberated GAG is measured photometrically.
The effect (1 value) of the respective substance in % based on the positive control (pH 5.5+0.01 μM pepstatin A) and the negative control (pH 5.5) is reported for concentrations of 1 μM and 100 nM. The value represents the average of 4 replicants. In the determination of a concentration/effect relationship, an IC50 value is reported to the database (Assay Explorer).
The cell culture supernatants (200 μl) are either measured directly or stored at −20° C. In order to ensure an accurate determination of the concentration (μg/ml of GAG in the supernatant) of GAG, the measurement values must be located in the linear region of the standard curve. In order to ensure this, various dilutions are routinely introduced (1/5, 1/10, 1/20, 1/40). The dilutions are prepared with medium and introduced automatically (Hamilton) into a 384-well plate (15 μl). 60 μl of DMMB solution are likewise added automatically (or using a multichannel pipette). A rapid colour reaction occurs, which is subsequently measured at 633 nm using a plate reader (for example Envision).

For a further series, the system named is rat knee joint. Briefly: Carrageenan (CAR)-induced knee joint inflammation: swelling and thermal hyperalgesia (Hargreaves test). The conditions noted are these: intra-articular administration 30 minutes before CAR. It counts as in vivo. The method, then: In order to induce an inflammation reaction, a carrageenan solution (CAR, 1%, 50 μl) was injected intra-articularly on one side into a rat knee joint. The uninjected side was used for control purposes. Six animals per group were used. The […] was determined by means of a micrometer screw (medial-lateral on the knee joint), and the thermal hyperalgesia was determined by means of a directed infrared light source by the Hargreaves method (Hargreaves et al., 1988) on the sole of the foot. Since the site of inflammation (knee joint) is different from the site of measurement (paw sole), use is made here of the term secondary thermal hyperalgesia, the mechanism of which is of importance for the discovery of effective analgesics.
Experimental description of thermal hyperalgesia (Hargreaves test): the experimental animal is placed in a plastic chamber on a quartz sheet. Before testing, the experimental animal is firstly given about 5-15 minutes time to familiarise itself with the environment. As soon as the experimental animal no longer moves so frequently after the familiarisation phase (end of the exploration phase), the infrared light source, whose focus is in the plane of the glass bottom, is positioned directly beneath the rear paw to be stimulated. An experiment run is then started by pressing the button: infrared light results in an increase in the skin temperature of the rear paw. The experiment is terminated either by the experimental animal raising the rear paw (as an expression of the pain threshold being reached) or by automatic switching-off of the infrared light source when a prespecified maximum temperature has been reached. Light reflected by the paw is recorded as long as the experimental animal sits still. Withdrawal of the paw interrupts this reflection, after which the infrared light source is switched off and the time from switching on to switching off is recorded. The instrument is calibrated in such a way that the infrared light source increases the skin temperature to about 45 degrees Celsius in 10 s (Hargreaves et al. 1988). […]

The target in series [2] is cathepsin D isolated from the human liver (Homo sapiens (Human), UniProt P07339). Briefly: In-vitro fluorescence assay for identification of cathepsin D inhibitors. It counts as biochemical. The conditions noted are these: cathepsin D 1.4 nM, pH 5.5; read-out: CatD assay IC50-. The method in brief: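 A FRET-quenched MCA/Dnp peptide (5 μM final) was cleaved by 1.4 nM liver-derived human cathepsin D at pH 5.5 in sodium acetate buffer containing CHAPS and 1.25% DMSO. Enzyme and compound dilutions were first incubated 10 min.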
Chain of cathepsin D isolated from the human liver (P07339 65-161): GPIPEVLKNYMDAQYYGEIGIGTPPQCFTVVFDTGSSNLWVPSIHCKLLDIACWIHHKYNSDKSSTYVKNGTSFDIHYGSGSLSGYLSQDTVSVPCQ
Chain of cathepsin D isolated from the human liver (P07339 169-412): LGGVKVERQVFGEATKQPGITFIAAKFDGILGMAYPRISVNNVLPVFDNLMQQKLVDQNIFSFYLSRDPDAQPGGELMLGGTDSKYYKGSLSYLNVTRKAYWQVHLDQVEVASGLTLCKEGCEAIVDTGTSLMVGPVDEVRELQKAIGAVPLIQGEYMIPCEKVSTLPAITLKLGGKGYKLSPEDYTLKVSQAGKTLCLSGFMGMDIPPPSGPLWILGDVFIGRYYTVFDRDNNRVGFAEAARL

Chain of recombinant human renin (P00797 67-406): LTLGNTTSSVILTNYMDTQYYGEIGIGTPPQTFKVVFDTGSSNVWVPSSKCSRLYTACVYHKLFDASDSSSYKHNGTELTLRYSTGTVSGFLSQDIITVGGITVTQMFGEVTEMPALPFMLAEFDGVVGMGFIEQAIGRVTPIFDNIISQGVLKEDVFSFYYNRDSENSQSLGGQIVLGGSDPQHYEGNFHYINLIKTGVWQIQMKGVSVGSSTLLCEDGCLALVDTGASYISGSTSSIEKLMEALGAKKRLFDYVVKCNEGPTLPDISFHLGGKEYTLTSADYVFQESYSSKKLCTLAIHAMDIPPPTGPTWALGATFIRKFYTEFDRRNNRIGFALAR

Regarding `CC[C@H](C)[C@H](NC(=O)C[C@H](N)[C@H](Cc1ccccc1)NC(=O)[C@@H](NC(=O)[C@H](CC(C)C)NC(=O)CC(C)C)C(C)C)C(=O)NCCc1ccccc1` [Compound 24, N-((1S,2S)-2-Methyl-1-phenethyl-carbamoylbutyl)-(S)-3-amino-4-{(S)-(S)-3-methyl-2-[(S)-4-methyl-2-(3-methylbutyryl-amino)pentanoylamino]butyrylamino}-5-phenylpentanamide], the “Stability in synovial fluid” value in series [1] is “stable”. The half-maximal inhibitory concentration (IC50) at recombinant human renin is over 30000 nM.

Take `CC[C@H](C)[C@H](NC(=O)C[C@H](N)[C@H](Cc1ccccc1)NC(=O)[C@@H](NC(=O)[C@H](Cc1ccccc1)NC(=O)CC(C)C)C(C)C)C(=O)N[C@H](C(=O)O)C(C)C` [Compound 33, (S)-2-[(2S,3S)-2-((3S,4S)-3-Amino-4-{(S)-3-methyl-2-[(S)-2-(3-methylbutyrylamino)-3-phenylpropionylamino]-1-oxobutyl-amino}-5-phenylpentanoylamino)-3-methylpentanoylamino]-3-methyl-butyric acid] (Isovaleryl-FV[X1]IV-OH): the “Stability in synovial fluid” value in series [1] is “stable”. For the same compound, the IC50 in the series with bovine explants was 2.64 nM.

Regarding `CC[C@H](C)[C@H](NC(=O)C[C@H](N)[C@H](Cc1ccccc1)NC(=O)[C@@H](NC(=O)[C@H](CC(C)C)NC(=O)CC(C)C)C(C)C)C(=O)N[C@H](C(=O)O)C(C)C` [Compound 23, (S)-2-[(2S,3S)-2-((3S,4S)-3-Amino-4-{(S)-3-methyl-2-[(S)-4-methyl-2-(3-methylbutyrylamino)pentanoylamino]-butyrylamino}-5-phenylpentanoylamino)-3-methyl-pentanoylamino]-3-methylbutyric acid] (Isovaleryl-LV[X1]IV-OH), the “CAR-induced swelling of joint” value with rat knee joint is reported as “no influence on inflammatory swelling”. Moreover, the thermal hyperalgesia entry in the series with rat knee joint (Hargreaves test) is given as “exerts an anti-hyperalgesic action”. Also, the IC50 in series [2] was determined as 50 nM.

As to `CC[C@H](C)[C@H](NC(=O)C[C@H](N)[C@H](Cc1ccccc1)NC(=O)[C@@H](NC(=O)[C@H](CC(C)C)NC(=O)CC(C)C)C(C)C)C(=O)Nc1ccn(C)n1` [Compound 27, N-[(1S,2S)-2-Methyl-1-(1-methyl-1H-pyrazol-3-ylcarbamoyl)butyl]-(S)-3-amino-4-{(S)-(S)-3-methyl-2-[(S)-4-methyl-2-(3-methylbutyrylamino)pentanoylamino]-butyrylamino}-5-phenylpentanamide], in series [1], the “Stability in synovial fluid” value is recorded as “stable”. Further, the IC50 in series [2] turned out to be 46 nM.

On to `C[C@]12C=CC(=O)C=C1CC[C@H]1[C@@H]3C[C@@H](O)[C@](O)(C(=O)CO)[C@@]3(C)C[C@H](O)[C@@]12F` [TAC, Triamcinolone, reference compound], for which the “CAR-induced swelling of joint” value in the series on rat knee joint is reported as “capable of reducing the CAR-induced swelling”.
